For experiment [1], the system named is Glomerella lagenarium (Colletotrichum lagenarium). The experiment can be described thus: Glomerella lagenarium (Colletotrichum lagenarium) liquid culture / cucumber / preventative (anthracnose). It counts as cell-based. The conditions noted are these: Colletotrichum orbiculare, liquid culture in PDB, 24° C., 3-4 days after application, read-out: control of Glomerella lagenarium compared to untreated control (inhibition of growth, photometric). How it is done:
Mycelia fragments or conidia suspensions of a fungus prepared either freshly from liquid cultures of the fungus or from cryogenic storage, are directly mixed into nutrient broth. DMSO solutions of the test compound (max. 10 mg/ml) are diluted with 0.025% Tween20 by a factor of 50 and 10 μl of this solution is pipetted into a microtiter plate (96-well format). The nutrient broth containing the fungal spores/mycelia fragments is then added to give an end concentration of the tested compound. The test plates are incubated in the dark at 24° C. and 96% relative humidity. The inhibition of fungal growth is determined photometrically after 2 to 7 days, depending on the pathosystem, and percent antifungal activity relative to the untreated check is calculated. Conidia of the fungus from cryogenic storage are directly mixed into nutrient broth (PDB potato dextrose broth). After placing a (DMSO) solution of test compound into a microtiter plate (96-well format), the nutrient broth containing the fungal spores is added. The test plates are incubated at 24° C. and the inhibition of growth is measured photometrically 3-4 days after application.

In a further experiment the test system is Phakopsora pachyrhizi. Description: Phakopsora pachyrhizi / soybean / leaf disc preventative (Asian soybean rust). The following applies: foliar, soybean leaf disks, inoculated one day after application, assessed 12-14 days after application, read-out: control of Phakopsora pachyrhizi compared to untreated control. It counts as in vivo. Here is the method: Leaf disks or leaf segments of various plant species are cut from plants grown in a greenhouse. The cut leaf disks or segments are placed in multiwell plates (24-well format) onto water agar. The leaf disks are sprayed with a test solution before (preventative) or after (curative) inoculation. Compounds to be tested are prepared as DMSO solutions (max. 10 mg/ml) which are diluted to the appropriate concentration with 0.025% Tween20 just before spraying. The inoculated leaf disks or segments are incubated under defined conditions (temperature, relative humidity, light, etc.) according to the respective test system. A single evaluation of disease level is carried out 3 to 14 days after inoculation, depending on the pathosystem. Percent disease control relative to the untreated check leaf disks or segments is then calculated. Soybean leaf disks are placed on water agar in multiwell plates (24-well format) and sprayed with the formulated test compound diluted in water. One day after application leaf discs are inoculated by spraying a spore suspension on the lower leaf surface. After an incubation period in a climate cabinet of 24-36 hours in darkness at 20° C. and 75% rh leaf disc are kept at 20° C. with 12 h light/12 h darkness and 75% rh. The activity of a compound is assessed as percent disease control compared to untreated when an appropriate level of disease damage appears in untreated check leaf disks (12-14 days after application).

In experiment [2] the test system is Puccinia recondita f. sp. tritici. The experiment can be described thus: Puccinia recondita f. sp. tritici / wheat / leaf disc preventative (brown rust). It is filed as in vivo. The conditions noted are these: foliar, wheat leaf segments cv. Kanzler, inoculated 1 day after application, assessed 7-9 days after application, read-out: control of Puccinia recondita f. sp. tritici compared to untreated control. How it is done: Leaf disks or leaf segments of various plant species are cut from plants grown in a greenhouse. The cut leaf disks or segments are placed in multiwell plates (24-well format) onto water agar. The leaf disks are sprayed with a test solution before (preventative) or after (curative) inoculation. Compounds to be tested are prepared as DMSO solutions (max. 10 mg/ml) which are diluted to the appropriate concentration with 0.025% Tween20 just before spraying. The inoculated leaf disks or segments are incubated under defined conditions (temperature, relative humidity, light, etc.) according to the respective test system. A single evaluation of disease level is carried out 3 to 14 days after inoculation, depending on the pathosystem. Percent disease control relative to the untreated check leaf disks or segments is then calculated. Wheat leaf segments cv. Kanzler are placed on agar in multiwell plates (24-well format) and sprayed with the formulated test compound diluted in water. The leaf disks are inoculated with a spore suspension of the fungus 1 day after application. The inoculated leaf segments are incubated at 19° C. and 75% rh under a light regime of 12 h light/12 h darkness in a climate cabinet and the activity of a compound is assessed as percent disease control compared to untreated when an appropriate level of disease damage appears in untreated check leaf segments (7-9 days after application).

Experiment [3] has the same test system. The experiment can be described thus: Puccinia recondita f. sp. tritici / wheat / leaf disc curative (brown rust). It is filed as in vivo. The following applies: foliar, wheat leaf segments cv. Kanzler, applied 1 day after inoculation, assessed 6-8 days after application, read-out: control of Puccinia recondita f. sp. tritici compared to untreated control. Here is the method: Leaf disks or leaf segments of various plant species are cut from plants grown in a greenhouse. The cut leaf disks or segments are placed in multiwell plates (24-well format) onto water agar. The leaf disks are sprayed with a test solution before (preventative) or after (curative) inoculation. Compounds to be tested are prepared as DMSO solutions (max. 10 mg/ml) which are diluted to the appropriate concentration with 0.025% Tween20 just before spraying. The inoculated leaf disks or segments are incubated under defined conditions (temperature, relative humidity, light, etc.) according to the respective test system. A single evaluation of disease level is carried out 3 to 14 days after inoculation, depending on the pathosystem. Percent disease control relative to the untreated check leaf disks or segments is then calculated. Wheat leaf segments cv. Kanzler are placed on agar in multiwell plates (24-well format). The leaf segments are inoculated with a spore suspension of the fungus. Plates are stored in darkness at 19° C. and 75% rh. The formulated test compound diluted in water is applied 1 day after inoculation. The leaf segments are incubated at 19° C. and 75% rh under a light regime of 12 h light/12 h darkness in a climate cabinet and the activity of a compound is assessed as percent disease control compared to untreated when an appropriate level of disease damage appears in untreated check leaf segments (6-8 days after application).

The results in this text go back to patent US11154060B2, “Microbiocidal oxadiazole derivatives” (SYNGENTA PARTICIPATIONS AG, priority 2016, dated 2021).

As usually defined, the inhibition is the share of the control response that was lost under treatment.

With `CON(C)C(=O)Cc1ccc(-c2noc(C(F)(F)F)n2)c(F)c1` [Compound 1.18, 2-[3-fluoro-4-[5-(trifluoromethyl)-1,2,4-oxadiazol-3-yl]phenyl]-N-methoxy-N-methyl-acetamide], the inhibition at 20 ppm in experiment [1] is no less than 80%. The pest or weed control at 200 ppm (with Phakopsora pachyrhizi; in experiment [2]; in experiment [3]) was no less than 80% each time.
As for `CON(C(=O)Cc1ccc(-c2noc(C(F)(F)F)n2)c(F)c1)C(C)c1ccccc1` (centres unmarked) [Compound 1.24, 2-[3-fluoro-4-[5-(trifluoromethyl)-1,2,4-oxadiazol-3-yl]phenyl]-N-methoxy-N-(1-phenylethyl)acetamide], in experiment [1], the inhibition at 20 ppm was no less than 80%. Further, in experiment [2], the pest or weed control at 200 ppm is no less than 80%.
As for `CON(C(=O)Cc1ccc(-c2noc(C(F)(F)F)n2)c(F)c1)C(C)C1CC1` (centres unmarked) [Compound 1.25, N-(1-cyclopropylethyl)-2-[3-fluoro-4-[5-(trifluoromethyl)-1,2,4-oxadiazol-3-yl]phenyl]-N-methoxy-acetamide], the inhibition at 20 ppm in experiment [1] was no less than 80%. Moreover, in experiment [3], the pest or weed control at 200 ppm is no less than 80%.
On to `CON(C(=O)Cc1ccc(-c2noc(C(F)(F)F)n2)cc1)C1COC1` [Compound 2.19, N-methoxy-N-(oxetan-3-yl)-2-[4-[5-(trifluoromethyl)-1,2,4-oxadiazol-3-yl]phenyl]acetamide], for which the inhibition at 20 ppm in experiment [1] is no less than 80%. In addition, the pest or weed control at 200 ppm in experiment [2] and in experiment [3] was no less than 80% each time.
Consider `CON(C(=O)Cc1ccc(-c2noc(C(F)(F)F)n2)cc1)C(C)c1ccccc1` (centres unmarked) [Compound 2.20, N-methoxy-N-(1-phenylethyl)-2-[4-[5-(trifluoromethyl)-1,2,4-oxadiazol-3-yl]phenyl]acetamide], for which the inhibition at 20 ppm in experiment [1] is no less than 80%.
For `CON(C(=O)Cc1ccc(-c2noc(C(F)(F)F)n2)cc1)C(C)C1CC1` (centres unmarked) [Compound 2.21, N-(1-cyclopropylethyl)-N-methoxy-2-[4-[5-(trifluoromethyl)-1,2,4-oxadiazol-3-yl]phenyl]acetamide], the inhibition at 20 ppm in experiment [1] was no less than 80%.
As to `CON(CC1CC1)C(=O)Cc1ccc(-c2noc(C(F)(F)F)n2)cc1` [Compound 2.22, N-(cyclopropylmethyl)-N-methoxy-2-[4-[5-(trifluoromethyl)-1,2,4-oxadiazol-3-yl]phenyl]acetamide], the inhibition at 20 ppm in experiment [1] is no less than 80%. Moreover, the pest or weed control at 200 ppm (with Phakopsora pachyrhizi; in experiment [3]) was no less than 80% each time.
Turning to `CON(CC1CC1C1CC1)C(=O)Cc1ccc(-c2noc(C(F)(F)F)n2)cc1` (centres unmarked) [Compound 2.25, N-[(2-cyclopropylcyclopropyl)methyl]-N-methoxy-2-[4-[5-(trifluoromethyl)-1,2,4-oxadiazol-3-yl]phenyl]acetamide], the inhibition at 20 ppm in experiment [1] was no less than 80%.
Regarding `O=C(Cc1ccc(-c2noc(C(F)(F)F)n2)cc1)N(O)CC1CC1C1CC1` (centres unmarked) [Compound 2.26, N-[(2-cyclopropylcyclopropyl)methyl]-N-hydroxy-2-[4-[5-(trifluoromethyl)-1,2,4-oxadiazol-3-yl]phenyl]acetamide], the inhibition at 20 ppm in experiment [1] was no less than 80%. In addition, the pest or weed control at 200 ppm in experiment [2] and in experiment [3] was no less than 80% each time.
